Source: patent publication US8969565B2, “Imidazo[1,2-b]pyridazine-based compounds, compositions comprising them, and methods of their use” (Lexicon Pharmaceuticals, Inc., priority 2012, dated 2015)

Target: T1, AAK1 (Homo sapiens, UniProt Q2M2I8)
T1 construct: HA; expressed in transfected cells; host or cells: HEK293F
Test: P81 filter plate assay
Type: biochemical
Settings: full-length human AAK1, Mu2 substrate
Protocol: Compounds were serially diluted into a Labcyte LDV plate (Labcyte, cat#LP-0200) using a Mutiprobe (PerkinElmer) and Biomek FX (Beckman Coulter) so that the highest compound concentration was at 96 μM. Compounds were then pinged (75 nL per well) into a Greiner 384-well reaction plate (Greiner, #781076) using an ECHO 550 Liquid Handler (Labcyte). A total of 12 μl reaction buffer (IMAP buffer containing Tween and DTT, from Molecular Devices) was then added to each well of columns 1 and 13 for the negative controls and 12 μl of 2×AAK1 (0.2 nM full-length human protein, NCBI accession no. NP_055726.2) was added to the remaining wells. Enzyme was then pre-incubated with compound for 10 minutes at RT. Reactions were initiated upon Minitrak (PerkinElmer) addition of 12 μl substrate mix containing 2×Mu2 (0.2 μM, full length human protein), 2× cold ATP (2 μM), and 1.3 μCi of hot ^33P-ATP. Reactions proceeded for one hour at RT. Meanwhile, Millipore 384-well P81 filter plates (Millipore, catalog #MZPHNOW10) were placed on a plate washer (Zoom ZW, from Titertek) and pre-wet with 50 μl 1% phosphoric acid. Kinase reactions were then stopped upon addition of 24 μl of 2% phosphoric acid to each well and the Minitrak was then used to transfer 40 μl from each well into the pre-wet Millipore 384-well P81 filter plates. Reaction mixtures were incubated for 10 minutes at RT in the P81 plates, followed by washing five times with 100 μl/well of 1% phosphoric acid using the Zoom filter washer. The bottom of each filter plate was sealed followed by addition of 20 μl Microscint 40 to each well, sealing the top of the plates with Flashplate cover, and then waiting one hour until reading on the TopCount (PerkinElmer).

T1 sequence (Q2M2I8 1-863 isoform Q2M2I8-2): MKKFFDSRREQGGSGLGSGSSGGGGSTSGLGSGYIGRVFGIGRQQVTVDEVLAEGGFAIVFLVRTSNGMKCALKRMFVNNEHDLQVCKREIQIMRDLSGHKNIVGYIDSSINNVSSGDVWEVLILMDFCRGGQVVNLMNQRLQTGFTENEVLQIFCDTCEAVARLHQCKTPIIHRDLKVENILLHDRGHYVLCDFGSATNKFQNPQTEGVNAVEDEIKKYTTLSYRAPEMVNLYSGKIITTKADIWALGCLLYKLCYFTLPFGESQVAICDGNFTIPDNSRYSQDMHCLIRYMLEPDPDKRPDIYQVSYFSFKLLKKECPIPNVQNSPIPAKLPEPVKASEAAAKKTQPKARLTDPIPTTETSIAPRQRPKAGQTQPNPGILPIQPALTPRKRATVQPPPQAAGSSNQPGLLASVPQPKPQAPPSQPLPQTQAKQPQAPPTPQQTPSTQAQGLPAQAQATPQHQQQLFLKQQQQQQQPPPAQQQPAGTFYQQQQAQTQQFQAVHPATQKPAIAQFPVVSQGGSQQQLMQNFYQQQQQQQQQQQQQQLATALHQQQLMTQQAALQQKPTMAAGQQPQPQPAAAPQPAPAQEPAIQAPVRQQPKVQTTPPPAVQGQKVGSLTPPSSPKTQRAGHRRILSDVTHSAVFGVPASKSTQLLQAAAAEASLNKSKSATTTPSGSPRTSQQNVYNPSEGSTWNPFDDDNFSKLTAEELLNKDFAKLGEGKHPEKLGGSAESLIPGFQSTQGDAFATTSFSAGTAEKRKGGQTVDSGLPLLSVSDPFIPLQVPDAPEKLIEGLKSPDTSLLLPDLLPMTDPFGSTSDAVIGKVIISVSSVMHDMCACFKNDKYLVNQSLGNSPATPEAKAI

Compound | IC50
COc1ncccc1-c1cnc2ccc(N3CC[C@H](O)C3)nn12 [(S)-1-(3-(2-methoxypyridin-3-yl)imidazo[1,2-b]pyridazin-6-yl)pyrrolidin-3-ol] | ≤ 1000 nM
Cc1cnc2ccc(N3CCN(C(=O)[C@@H](N)CC(C)C)CC3)nn12 [(S)-2-amino-4-methyl-1-(4-(3-methylimidazo[1,2-b]pyridazin-6-yl)piperazin-1-yl)pentan-1-one] | ≤ 100 nM
COCCOC(=O)N(C)[C@H]1CCN(c2ccc3ncc(-c4cccnc4OC)n3n2)C1 [(S)-2-methoxyethyl (1-(3-(2-methoxypyridin-3-yl)imidazo[1,2-b]pyridazin-6-yl)pyrrolidin-3-yl)(methyl)carbamate] | ≤ 100 nM
CN(C(=O)CC(F)(F)F)[C@H]1CCN(c2ccc3ncc(-c4cccnc4O)n3n2)C1 [(S)-3,3,3-trifluoro-N-(1-(3-(2-hydroxypyridin-3-yl)imidazo[1,2-b]pyridazin-6-yl)pyrrolidin-3-yl)-N-methylpropanamide] | ≤ 10 nM
COCCO[C@H]1CCN(c2ccc3ncc(-c4ccc(C)nc4OC)n3n2)C1 [(S)-3-(2-methoxy-6-methylpyridin-3-yl)-6-(3-(2-methoxyethoxy)pyrrolidin-1-yl)imidazo[1,2-b]pyridazine] | ≤ 100 nM
CC(C)CC(=O)N(C)[C@H]1CCN(c2ccc3ncc(-c4cccnc4O)n3n2)C1 [(S)-N-(1-(3-(2-hydroxypyridin-3-yl)imidazo[1,2-b]pyridazin-6-yl)pyrrolidin-3-yl)-N,3-dimethylbutanamide] | ≤ 100 nM
CCCC(=O)N(C)[C@H]1CCN(c2ccc3ncc(-c4cccnc4OC)n3n2)C1 [(S)-N-(1-(3-(2-methoxypyridin-3-yl)imidazo[1,2-b]pyridazin-6-yl)pyrrolidin-3-yl)-N-methylbutyramide] | ≤ 100 nM
CCCC(=O)N(C)[C@H]1CCN(c2ccc3ncc(Br)n3n2)C1 [(S)-N-(1-(3-bromoimidazo[1,2-b]pyridazin-6-yl)pyrrolidin-3-yl)-N-methylbutyramide] | ≤ 1000 nM
CN(C(=O)N1CCCC1)[C@H]1CCN(c2ccc3ncc(Br)n3n2)C1 [(S)-N-(1-(3-bromoimidazo[1,2-b]pyridazin-6-yl)pyrrolidin-3-yl)-N-methylpyrrolidine-1-carboxamide] | ≤ 100 nM
N#Cc1cnc2ccc(NC[C@@H]3CCCN3C(=O)OC3CCCC3)nn12 [(S)-cyclopentyl 2-(((3-cyanoimidazo[1,2-b]pyridazin-6-yl)amino)methyl)pyrrolidine-1-carboxylate] | ≤ 10 nM
O=C(OCC1CC1)N1CCC[C@H]1CNc1ccc2ncc(Br)n2n1 [(S)-cyclopropylmethyl 2-(((3-bromoimidazo[1,2-b]pyridazin-6-yl)amino)methyl)pyrrolidine-1-carboxylate] | ≤ 10 nM
COc1ncccc1-c1cnc2ccc(OC[C@@H]3CCCN3C(=O)OC(C)C)nn12 [(S)-isopropyl 2-(((3-(2-methoxypyridin-3-yl)imidazo[1,2-b]pyridazin-6-yl)oxy)methyl)pyrrolidine-1-carboxylate] | ≤ 100 nM
CC(C)OC(=O)N(C)[C@H]1CCN(c2ccc3ncc(-c4ccncc4)n3n2)C1 [(S)-isopropyl methyl(1-(3-(pyridin-4-yl)imidazo[1,2-b]pyridazin-6-yl)pyrrolidin-3-yl)carbamate] | ≤ 100 nM
CN(C(=O)C1CCCC1)[C@H]1CCN(c2ccc3ncc(-c4cccnc4O)n3n2)C1 [Cyclopentanecarboxylic acid {(S)-1-[3-(2-hydroxy-pyridin-3-yl)-imidazo[1,2-b]pyridazin-6-yl]-pyrrolidin-3-yl}-methyl-amide] | ≤ 100 nM
COC(=O)c1cnn(-c2ccc3ncc(Br)n3n2)c1 [Methyl 1-(3-bromoimidazo[1,2-b]pyridazin-6-yl)-1H-pyrazole-4-carboxylate] | ≤ 100 nM
COc1cccc(-c2cnc3ccc(NCCOC4CCCC4)nn23)c1 [N-(2-(cyclopentyloxy)ethyl)-3-(3-methoxyphenyl)imidazo[1,2-b]pyridazin-6-amine] | ≤ 100 nM

Further lines, results first:

IC50 | Compound
≤ 10 nM | CCCC(=O)N1CCC[C@H]1CNc1ccc2ncc(-c3ccncc3)n2n1 [(S)-1-(2-(((3-(pyridin-4-yl)imidazo[1,2-b]pyridazin-6-yl)amino)methyl)pyrrolidin-1-yl)butan-1-one]
≤ 10 nM | CC(C)(C)CCN1C(=O)CC[C@H]1CNc1ccc2ncc(-c3ccncc3)n2n1 [(S)-1-(3,3-dimethylbutyl)-5-(((3-(pyridin-4-yl)imidazo[1,2-b]pyridazin-6-yl)amino)methyl)pyrrolidin-2-one]
≤ 10 nM | CC(C)C[C@H](N)C(=O)N1CCN(c2ccc3ncc(Br)n3n2)CC1 [(S)-2-amino-1-(4-(3-bromoimidazo[1,2-b]pyridazin-6-yl)piperazin-1-yl)-4-methylpentan-1-one]
≤ 100 nM | CC(C)C[C@H](N)C(=O)N1CCN(c2ccc3ncc(Cl)n3n2)CC1 [(S)-2-amino-1-(4-(3-chloroimidazo[1,2-b]pyridazin-6-yl)piperazin-1-yl)-4-methylpentan-1-one]
≤ 1000 nM | CC(C)C[C@H](N)C(=O)N1CCN(c2ccc3nccn3n2)CC1 [(S)-2-amino-1-(4-(imidazo[1,2-b]pyridazin-6-yl)piperazin-1-yl)-4-methylpentan-1-one]
≤ 10 nM | Cc1cnc2ccc(N3CCN(C(=O)[C@@H](N)C(C)C)CC3)nn12 [(S)-2-amino-3-methyl-1-(4-(3-methylimidazo[1,2-b]pyridazin-6-yl)piperazin-1-yl)butan-1-one]
≤ 10 nM | CN(C(=O)CC1CC1)[C@H]1CCN(c2ccc3ncc(-c4cccnc4O)n3n2)C1 [(S)-2-cyclopropyl-N-(1-(3-(2-hydroxypyridin-3-yl)imidazo[1,2-b]pyridazin-6-yl)pyrrolidin-3-yl)-N-methylacetamide]
≤ 1000 nM | COCCO[C@H]1CCN(c2ccc3ncc(-c4cc(C)cnc4OC)n3n2)C1 [(S)-3-(2-methoxy-5-methylpyridin-3-yl)-6-(3-(2-methoxyethoxy)pyrrolidin-1-yl)imidazo[1,2-b]pyridazine]
≤ 1000 nM | COCCO[C@H]1CCN(c2ccc3ncc(-c4cccnc4OC)n3n2)C1 [(S)-6-(3-(2-methoxyethoxy)pyrrolidin-1-yl)-3-(2-methoxypyridin-3-yl)imidazo[1,2-b]pyridazine]
≤ 1000 nM | COCC(=O)N(C)[C@H]1CCN(c2ccc3ncc(-c4cccnc4O)n3n2)C1 [(S)-N-(1-(3-(2-hydroxypyridin-3-yl)imidazo[1,2-b]pyridazin-6-yl)pyrrolidin-3-yl)-2-methoxy-N-methylacetamide]
≤ 100 nM | CCCC(=O)N(C)[C@H]1CCN(c2ccc3ncc(-c4cccnc4O)n3n2)C1 [(S)-N-(1-(3-(2-hydroxypyridin-3-yl)imidazo[1,2-b]pyridazin-6-yl)pyrrolidin-3-yl)-N-methylbutyramide]
≤ 1000 nM | CCCC(=O)N(C)[C@H]1CCN(c2ccc3ncc(-c4cccnc4)n3n2)C1 [(S)-N-methyl-N-(1-(3-(pyridin-3-yl)imidazo[1,2-b]pyridazin-6-yl)pyrrolidin-3-yl)butyramide]
≤ 100 nM | CCCC(=O)N(C)[C@H]1CCN(c2ccc3ncc(-c4ccncc4)n3n2)C1 [(S)-N-methyl-N-(1-(3-(pyridin-4-yl)imidazo[1,2-b]pyridazin-6-yl)pyrrolidin-3-yl)butyramide]
≤ 100 nM | CN(C(=O)N1CCCC1)[C@H]1CCN(c2ccc3ncc(-c4ccncc4)n3n2)C1 [(S)-N-methyl-N-(1-(3-(pyridin-4-yl)imidazo[1,2-b]pyridazin-6-yl)pyrrolidin-3-yl)pyrrolidine-1-carboxamide]
≤ 10 nM | O=C(OCC1CC1)N1CCC[C@H]1CNc1ccc2ncc(-c3ccncc3)n2n1 [(S)-cyclopropylmethyl 2-(((3-(pyridin-4-yl)imidazo[1,2-b]pyridazin-6-yl)amino)methyl)pyrrolidine-1-carboxylate]
≤ 100 nM | CC(C)OC(=O)N1CCC[C@H]1COc1ccc2ncc(-c3cccnc3O)n2n1 [(S)-isopropyl 2-(((3-(2-hydroxypyridin-3-yl)imidazo[1,2-b]pyridazin-6-yl)oxy)methyl)pyrrolidine-1-carboxylate]
≤ 100 nM | Cc1ccc(-c2cnc3ccc(N4CC[C@H](N(C)C(=O)OC(C)C)C4)nn23)c(=O)n1C [(S)-isopropyl (1-(3-(1,6-dimethyl-2-oxo-1,2-dihydropyridin-3-yl)imidazo[1,2-b]pyridazin-6-yl)pyrrolidin-3-yl)(methyl)carbamate]
≤ 10 nM | CC(C)OC(=O)N(C)[C@H]1CCN(c2ccc3ncc(-c4cccnc4OC(F)F)n3n2)C1 [(S)-isopropyl (1-(3-(2-(difluoromethoxy)pyridin-3-yl)imidazo[1,2-b]pyridazin-6-yl)pyrrolidin-3-yl)(methyl)carbamate]
≤ 10 nM | CCCOC(=O)N1CCC[C@H]1CNc1ccc2ncc(Br)n2n1 [(S)-propyl 2-(((3-bromoimidazo[1,2-b]pyridazin-6-yl)amino)methyl)pyrrolidine-1-carboxylate]
≤ 10 nM | CN(C(=O)OC(C)(C)C)[C@H]1CCN(c2ccc3ncc(-c4cccnc4)n3n2)C1 [(S)-tert-butyl methyl(1-(3-(pyridin-3-yl)imidazo[1,2-b]pyridazin-6-yl)pyrrolidin-3-yl)carbamate]
